Measured values from patent US10757937B2, “Sulfonamides that activate ABA receptors” (The Regents of the University of California, priority 2014, dated 2020).
Where two headings read alike, the source gives them in different places.

Tests used:
PYL4 = target: T1, PYL4 (Arabidopsis thaliana, UniProt O80920); assay: receptor-mediated PP2C (HAB1) inhibition in vitro assay; format: biochemical; settings: compound at 25 μM; control without agonist = 100%
T1 construct: 6X-His; made in house; host or cells: E. coli BL21[DE3]pLysS
T1 sequence (O80920 1-207): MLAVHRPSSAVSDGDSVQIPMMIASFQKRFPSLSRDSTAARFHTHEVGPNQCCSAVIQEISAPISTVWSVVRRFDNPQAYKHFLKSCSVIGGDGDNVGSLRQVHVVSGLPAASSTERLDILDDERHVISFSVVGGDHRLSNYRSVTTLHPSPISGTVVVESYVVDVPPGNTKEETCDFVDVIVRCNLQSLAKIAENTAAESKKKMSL
T1 sequence (Q9CAJ0 23-511 partner): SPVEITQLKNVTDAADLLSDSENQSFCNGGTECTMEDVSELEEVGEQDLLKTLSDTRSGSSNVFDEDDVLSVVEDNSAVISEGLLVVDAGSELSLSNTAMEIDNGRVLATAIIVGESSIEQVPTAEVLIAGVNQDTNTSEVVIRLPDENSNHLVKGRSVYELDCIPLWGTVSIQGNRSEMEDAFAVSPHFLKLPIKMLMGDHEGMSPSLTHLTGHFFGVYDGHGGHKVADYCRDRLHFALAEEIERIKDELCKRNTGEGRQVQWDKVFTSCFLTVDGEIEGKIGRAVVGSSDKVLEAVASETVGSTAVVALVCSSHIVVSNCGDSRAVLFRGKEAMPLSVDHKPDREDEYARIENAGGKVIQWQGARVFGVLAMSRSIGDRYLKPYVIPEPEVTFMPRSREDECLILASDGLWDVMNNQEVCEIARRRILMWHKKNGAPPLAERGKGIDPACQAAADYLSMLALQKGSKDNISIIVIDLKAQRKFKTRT
Method: (§1) A family of 62 structurally related N-acyl sulfonamides (Tables I-V) were tested for ABA agonist activity using multiple receptor-mediated PP2C inhibition in vitro assays (Park et al., 2009). […] The constructs utilized for protein expression have been previously described (Okamoto et al. 2013). For constructs encoding 6X-His-fusion proteins (all receptors except PYL11), the coding sequences were of the receptors were cloned in the vector pET28, expressed in BL21[DE3]pLysS E. coli host cells at 18° C. overnight, and subsequently purified from sonicated lysates using Ni-NTA agarose (Qiagen, USA), according to the manufacturer's instructions. PYL11 was constructed as a maltose binding protein fusion in the vector pMAL-c, expressed in BL21┌DE3┐pLysS host cells and purified using amylose resin (New England Biolabs) as described by the manufacturer. Recombinant GST-HAB1 was expressed and purified as described previously (Park et al., 2009). PP2C activity assays were conducted using the fluorogenic phosphatase substrate 4-methylumbelliferyl-phosphate. Recombinant receptors and HAB1 were used to examine ligand-induced PP2C inactivation in response to multiple test compounds. Enzyme inhibition assays were conducted using the following assay conditions: 50 nM GST-PP2C, 100 mM Tris-OAc (pH 7.9), 100 mM NaCl, 1 mM MnCl2, 1% β-mercaptoethanol. […] Because of this, the ratio of each receptor used in the PP2C-inhibitions assays was established empirically as the minimum fold-excess of receptor required to elicit maximal PP2C inhibition at a saturating ABA concentration (10 μM).
(§2) Based on this criterion, we used a ratio of 2:1 receptor in the assays described herein.
(§3) Using the above assay conditions, compounds were tested at 25 μM for agonist activity on PYL4, PYL5, PYL8 and PYL9. […] Consequently, a subset of the compounds was tested at multiple concentrations against 11 receptors so that IC50 values and receptor selectivity profiles could be examined. […] Thus, the N-acylsulfonamide agonists disclosed are selective for monomeric receptors.
(§4) Additional compounds were tested for biological activity following the procedures of Example 1 with minor modifications.
(§5) For these in vitro receptor assays, the compounds listed were tested in in vitro PP2C inhibition assays with 50 uM of the test compound except for ABA (10 uM). IC50s were calculated from dose curves, but only for selected compounds.

PYL5 = target: T2, PYL5 (Arabidopsis thaliana, UniProt Q9FLB1); assay: as above; format: biochemical; settings: compound at 25 μM; control without agonist = 100%
T2 construct: 6X-His; made in house; host or cells: E. coli BL21[DE3]pLysS
T2 sequence (Q9FLB1 1-203): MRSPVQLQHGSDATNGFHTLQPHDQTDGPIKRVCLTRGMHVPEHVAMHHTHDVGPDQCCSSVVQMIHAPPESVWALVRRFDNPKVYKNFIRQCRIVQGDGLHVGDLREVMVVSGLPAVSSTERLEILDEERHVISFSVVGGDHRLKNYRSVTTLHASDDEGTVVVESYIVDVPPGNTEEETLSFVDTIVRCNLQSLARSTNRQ
T2 sequence (Q9CAJ0 23-511 partner): T1 sequence (Q9CAJ0 23-511 partner)
Method: as §1, §2, §3, §4, §5

PYL8 = target: T3, PYL8 (Arabidopsis thaliana, UniProt Q9FGM1); assay: as above; format: biochemical; settings: compound at 25 μM; control without agonist = 100%
T3 construct: 6X-His; made in house; host or cells: E. coli BL21[DE3]pLysS
T3 sequence (Q9FGM1 1-188): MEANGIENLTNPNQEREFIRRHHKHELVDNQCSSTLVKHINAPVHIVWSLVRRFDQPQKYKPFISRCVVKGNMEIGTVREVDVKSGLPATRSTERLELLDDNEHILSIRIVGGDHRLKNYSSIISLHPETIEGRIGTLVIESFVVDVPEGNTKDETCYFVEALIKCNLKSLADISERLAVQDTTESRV
T3 sequence (Q9CAJ0 23-511 partner): T1 sequence (Q9CAJ0 23-511 partner)
Method: as §1, §2, §3, §4, §5

PYL9 = target: T4, PYL9 (Arabidopsis thaliana, UniProt Q84MC7); assay: as above; format: biochemical; settings: compound at 25 μM; control without agonist = 100%
T4 construct: 6X-His; made in house; host or cells: E. coli BL21[DE3]pLysS
T4 sequence (Q84MC7 1-187): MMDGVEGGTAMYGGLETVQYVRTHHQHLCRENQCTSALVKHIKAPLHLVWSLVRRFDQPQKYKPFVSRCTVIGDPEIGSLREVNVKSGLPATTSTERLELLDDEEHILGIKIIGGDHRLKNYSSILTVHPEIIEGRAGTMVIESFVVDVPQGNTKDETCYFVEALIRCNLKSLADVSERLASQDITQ
T4 sequence (Q9CAJ0 23-511 partner): T1 sequence (Q9CAJ0 23-511 partner)
Method: as §1, §2, §3, §4, §5

[1] = system: Arabidopsis seed germination and hypocotyl growth; assay: Arabidopsis seed germination and hypocotyl growth; format: in vivo; settings: − = none; for Hypocotyl Growth Inhibition / Germination Inhibition: Germination Inhibition II, tested at 10 and 50 uM; for Hypocotyl Growth Inhibition: lowest concentration that inhibited hypocotyl growth in wells where seeds germinated; for Germination Inhibition: lowest of the two concentrations that inhibited; for minimal effective concentration: Table VIII, tested at 10 or 50 μM, lowest inhibiting concentration
Method: We germinated seeds from wild type on ½× strength Murashige and Skoog salts growth medium containing either 10 or 50 μM for all 62 compounds as well as 1 μM (+)-ABA and mock controls. […] To investigate if the any of the compounds are sufficient to control vegetative ABA responses, we treated three week old Arabidopsis plants with aqueous solutions containing 0.02% Silwet and either 50 μM of selected N-acylsulfonamides, 50 μM ABA or 0.1% DMSO (the carrier solvent for the compounds tested). The leaf temperatures were subsequently examined using a thermal imaging camera 24 hours after treatment. It is well known that ABA-induced guard cell closure reduces transpiration, which leads to increases in leaf temperatures. It has been estimated that a 1° C. increase in leaf temperature correlates with a decrease in transpiration rates by approximately 50% (Sirault et al., 2009). Since guard cell aperture is the primary determinant of transpiration rates, thermal imaging is a useful way to indirectly infer relative transpiration rates and, indirectly, relative degrees of guard cell opening at the whole plant level.
as §4
For the germination inhibition experiment, the compounds were tested at 10 and 50 uM. The amounts shown are the lowest of the two concentrations that either inhibited germination or hypocotyl growth in wells where seeds germinated.
For the germination test, the compounds were tested at 1, 5, 10, 25 and 50 uM. The amounts shown are the lowest of the concentrations that either inhibited germination or hypocotyl growth in the wells where seeds germinated.

[2] = ABA at 1 μM, read-out: Germination Inhibition
[3] = read-out: Hypocotyl Growth Inhibition

SMILES	PP2C Activity (25 μm) PYL4 (PYL4)	PP2C Activity (25 μm) PYL5 (PYL5)	PP2C Activity (25 μm) PYL8 (PYL8)	PP2C Activity (25 μm) PYL9 (PYL9)	Hypocotyl Growth Inhibition [1]	Germination Inhibition [1]	minimal effective concentration [1, 2]	minimal effective concentration [1, 3]
CC(C)(C(=O)NS(=O)(=O)Cc1ccc(C#N)cc1)c1ccc(Br)cc1 [Compound 2]	89%	23%	69%	47%	10 µM	50 µM	50 µM	10 µM
CC(C)(C(=O)NS(=O)(=O)Cc1ccc(F)cc1)c1ccccc1 [Compound 4]	97%	106%	59%	36%	50 µM			50 µM
CC(C)(C(=O)NS(=O)(=O)Cc1ccccc1)c1ccccc1 [Compound 5]	89%	86%	83%	61%	50 µM			50 µM
CC(C)(C(=O)NS(=O)(=O)Cc1ccc(C#N)cc1)c1ccccc1F [Compound 8]	91%	41%	77%	69%	10 µM	50 µM	50 µM	10 µM
CC(C)(C(=O)NS(=O)(=O)Cc1ccc(C#N)cc1)c1cccc(Br)c1 [Compound 9]	91%	43%	58%	47%	10 µM			10 µM
CCC(CC)(C(=O)NS(=O)(=O)Cc1ccc(C#N)cc1)c1ccc(Cl)cc1 [Compound 10]	93%	75%	83%	73%	50 µM			50 µM
Cc1ccc(C(C)(C)C(=O)NS(=O)(=O)Cc2ccc(C#N)cc2)cc1 [Compound 12]	92%	43%	62%	47%	50 µM			50 µM
CC(C)(C(=O)NS(=O)(=O)Cc1ccc(C#N)cc1)c1cccc(Cl)c1 [Compound 15]	96%	51%	57%	46%	10 µM			10 µM
CC(C)(C(=O)NS(=O)(=O)Cc1ccc(C#N)cc1)c1cccc(F)c1 [Compound 16]	93%	47%	43%	30%	10 µM	50 µM	50 µM	10 µM
CCC(CC)(C(=O)NS(=O)(=O)Cc1ccccc1C#N)c1ccccc1 [Compound 17]	85%	96%	95%	94%	50 µM			50 µM
COc1ccc(C(C)(C)C(=O)NS(=O)(=O)Cc2ccc(C#N)cc2)cc1 [Compound 22]	95%	85%	91%	92%	10 µM			10 µM
N#Cc1ccc(CS(=O)(=O)NC(=O)C2(c3ccccc3)CC2)cc1 [Compound 27]	97%	39%	77%	63%	50 µM			50 µM
